According to US6617350B2, “Inhibitors of aspartyl protease” (priority 1999, dated 2003):
Where two headings read alike, the source gives them in different places.

Assays:
[1] = molecular target: HIV-1 protease (Human immunodeficiency virus type 1 group M subtype B, UniProt P04585); experiment: biochemical; conditions: Table 12; HIV-1 protease; read-out: Ki
[2] = test system: HIV-1 (strain IIIB); experiment: microbe, parasite or virus in culture; type: cell-based; conditions: read-out: IC50
[3] = Human immunodeficiency virus 1, IIIB, MT4, Table 12, anti-viral potency in MT-4 cells
[4] = Table 12, anti-viral potency in MT-4 cells

Molecule | Ki [1] [µM] | IC50 [2, 3] [µM] | IC50 ([2]; Human immunodeficiency virus 1, IIIB, MT4, Table 13, MT-4 cell based assay, class symbol) [µM] | IC50 [2, 4] [µM]
COc1ccc(S(=O)(=O)N(CC(C)CCC#N)CC(O)C(Cc2ccccc2)NC(=O)OC2CCOC2)cc1 [Compound 8, (3S)-Tetrahydro-3-furanyl N-((1S,2R)-1-benzyl-3-[(2RS)-4-cyano-2-methyl][(4-methoxyphenyl)sulfonyl]amino-2-hydroxypropyl)carbamate] | < 0.001 | ≤ 0.1 |  | 
CNc1cccc(S(=O)(=O)N(C[C@@H](O)[C@H](Cc2ccccc2)NC(=O)O[C@H]2CO[C@H]3OCC[C@H]32)CC(C)(C)CCC#N)c1 [Compound 12, (3R,3aS,6aR)-Hexahydrofuro[2,3-b]furan-3-yl N-[(1S,2R)-1-benzyl-3-((4-cyano-2,2-dimethylbutyl)[3-(methylamino)-phenyl]sulfonylamino)-2-hydroxypropyl]carbamate] | < 0.001 | ≤ 0.1 | 0.001 to 0.01 | 
COc1ccc(S(=O)(=O)N(CC(O)C(Cc2ccccc2)NC(=O)OC2COC3OCCC23)CC(C)(C)CCN(C)C)cc1 [Compound 238, (3R,3aS,6aR)hexahydrofuro[2,3-b]furan-3-yl N-((1S,2R)-1-benzyl-3-[4-(dimethylamino)-2,2-dimethylbutyl][(4-methoxyphenyl)sulfonyl]amino-2-hydroxypropyl)carbamate and (3S,3aR,6aS)hexahydrofuro[2,3-b]furan-3-yl N-((1S,2R)-1-benzyl-3-[4-(dimethylamino)-2,2-dimethylbutyl][(4-methoxyphenyl)sulfonyl]amino-2-hydroxypropyl)carbamate]] | < 0.001 | 0.1 to 0.5 |  | 
CCC(CCC1(C)OCCO1)CN(C[C@@H](O)[C@H](Cc1ccccc1)NC(=O)OC(C)(C)C)S(=O)(=O)c1ccc(OC)cc1 (mixture of isomers) [Compound 202, tert-ButylN-((1S,2R)-1-benzyl-3-[2-ethyl-4-(2-methyl-1,3-dioxolan-2-yl)butyl][(4-methoxyphenyl)sulfonyl]amino-2-hydroxypropyl)carbamate] | 0.001 to 0.01 | > 1 |  | 
CC(C)(CCC#N)CN(CC(O)C(Cc1ccccc1)NC(=O)OC1COC2OCCC12)S(=O)(=O)c1ccc2c(c1)OCCO2 (centres unmarked) [Compound 37] | < 0.001 | ≤ 0.1 |  | 
COc1ccc(S(=O)(=O)N(CCCCC2(C)OCCO2)C[C@@H](O)[C@H](Cc2ccccc2)NC(=O)OC(C)(C)C)cc1 [Compound 201, tert-Butyl N-((1S,2R)-1-benzyl-2-hydroxy-3-[(4-methoxyphenyl)sulfonyl][4-(2-methyl-1,3-dioxolan-2-yl)butyl]aminopropyl)carbamate] | 0.001 to 0.01 | > 1 |  | 
CC(C)(CCCCN)CN(CC(O)C(Cc1ccccc1)NC(=O)OC1COC2OCCC12)S(=O)(=O)c1ccc2c(c1)OCO2 [Compound 244, (3R,3aS,6aR)hexahydrofuro[2,3-b]furan-3-yl N-(1S,2R)-3-[(6-amino-2,2-dimethylhexyl)(1,3-benzodioxol-5-ylsulfonyl)amino]-1-benzyl-2-hydroxypropylcarbamate] | < 0.001 | 0.1 to 0.5 |  | 
CCOC(=O)NCCCC(C)(C)CN(CC(O)C(Cc1ccccc1)NC(=O)OC1COC2OCCC12)S(=O)(=O)c1ccc(OC)cc1 [Compound 230, (3R,3aS,6aR)hexahydrofuro[2,3-b]furan-3-yl N-((1S,2R)-1-benzyl-3-5-[(ethoxycarbonyl)amino]-2,2-dimethylpentyl[(4-methoxyphenyl)sulfonyl]amino-2-hydroxypropyl)carbamate and (3S,3aR,6aS)hexahydrofuro[2,3-b]furan-3-yl N-((1S,2R)-1-benzyl-3-5-[(ethoxycarbonyl)amino]-2,2-dimethylpentyl[(4-methoxyphenyl)sulfonyl]amino-2-hydroxypropyl)carbamate] | < 0.001 | ≤ 0.1 |  | 
COc1ccc(S(=O)(=O)N(CCC(C)=O)C[C@@H](O)[C@H](Cc2ccccc2)NC(=O)O[C@H]2CO[C@H]3OCC[C@H]32)cc1 [Compound 280, {(1S,2R)-3-[(4-methoxybenzenesulfonyl)-(3-butanonyl)-amino]-1-benzyl-2-hydroxy-propyl}-carbamic acid (3R,3aS,6aR)hexahydro-furo[2,3-b]furan-3-yl ester] | < 0.001 | 0.1 to 0.5 |  | 
COC(=O)NCCCCC(C)(C)CN(C[C@@H](O)[C@H](Cc1ccccc1)NC(=O)O[C@H]1CO[C@H]2OCC[C@H]21)S(=O)(=O)c1ccc2c(c1)OCO2 [Compound 248, (3R,3aS, 6aR)hexahydrofuro[2,3-b]furan-3-yl N-[(1S,2R)-3-((1,3-benzodioxol-5-ylsulfonyl)6-[(methoxycarbonyl)amino]-2,2-dimethylhexylamino)-1-benzyl-2-hydroxypropyl]carbamate] | < 0.001 | ≤ 0.1 |  | 
CC(C)(CCC#N)CN(CC(O)[C@H](Cc1ccccc1)NC(=O)OC1COC2OCCC12)S(=O)(=O)c1cccc(N)c1 (stereo partly drawn) [Compound 16, (3R,3aS,6aR)-Hexahydrofuro[2,3-b]furan-3-yl N-((1S,2R)-3-[(3-aminophenyl)sulfonyl](4-cyano-2,2-dimethylbutyl)amino-1-benzyl-2-hydroxypropyl)carbamate] | < 0.001 |  |  | ≤ 0.1
CC(C)(CCCCNS(C)(=O)=O)CN(C[C@@H](O)[C@H](Cc1ccccc1)NC(=O)O[C@H]1CO[C@H]2OCC[C@H]21)S(=O)(=O)c1ccc2c(c1)OCCO2 [Compound 256, (3R,3aS,6aR)hexahydrofuro[2,3-b]furan-3-yl N-[(1S,2R)-1-benzyl-3-((2,3-dihydro-1,4-benzodioxin-6-ylsulfonyl)2,2-dimethyl-6-[(methylsulfonyl)amino]hexylamino)-2-hydroxypropyl]carbamate] | < 0.001 | ≤ 0.1 |  | 
CCC(CCC#N)CN(CC(O)C(Cc1ccccc1)NC(=O)OC1CCOC1)S(=O)(=O)c1ccc(OC)cc1 [Compound 9, (3S)-Tetrahydro-3-furanyl N-((1S,2R)-1-benzyl-3-[(2RS)-4-cyano-2-ethyl][(4-methoxyphenyl)sulfonyl]amino-2-hydroxypropyl)carbamate] | < 0.001 | > 1 |  | 
CC(C)(CCCNS(C)(=O)=O)CN(C[C@@H](O)[C@H](Cc1ccccc1)NC(=O)O[C@H]1CO[C@H]2OCC[C@H]21)S(=O)(=O)c1ccc2c(c1)OCO2 [Compound 269, (3R,3aS,6aR)hexahydrofuro[2,3-b]furan-3-yl N-[(1S,2R)-3-((1,3-benzodioxol-5-ylsulfonyl)2,2-dimethyl-5-[(methylsulfonyl)amino]pentylamino)-1-benzyl-2-hydroxypropyl]carbamate] | < 0.001 | ≤ 0.1 |  | 
COc1ccc(S(=O)(=O)N(C[C@@H](O)[C@H](Cc2ccccc2)NC(=O)O[C@H]2CCOC2)CC(C)(C)CCC(C)=O)cc1 [Compound 208, (3S)-Tetrahydro-3-furanyl N-((1S,2R)-1-benzyl-3-(2-,2-dimethyl-5-oxohexyl)[(4-methoxyphenyl)sulfonyl]amino-2-hydroxypropyl)carbamate] | < 0.001 | 0.1 to 0.5 |  | 
COc1ccc(S(=O)(=O)N(CCCCC#N)C[C@@H](O)[C@H](Cc2ccccc2)NC(=O)O[C@H]2CCOC2)cc1 [Compound 26, (3S)-Tetrahydro-3-furanyl N-((1S,2R)-1-benzyl-3-(4-cyanobutyl)[(4-methoxyphenyl)sulfonyl]amino-2-hydroxypropyl)carbamate] | < 0.001 | 0.1 to 0.5 |  | 
CC(=O)CCC(C)(C)CN(CC(O)[C@H](Cc1ccccc1)NC(=O)OC1COC2OCCC12)S(=O)(=O)c1ccc2c(c1)OCCO2 (stereo partly drawn) [Compound 252, (3R,3aS,6aR)-Hexahydrofuro[2,3-b]furan-3-yl N-((1S,2R)-3-(1,4-benzodioxan-6-sulfonyl)(2,2-dimethyl-5-oxohexyl)amino-1-benzyl-2-hydroxypropyl)carbamate] | < 0.001 | ≤ 0.1 |  | 
COc1ccc(S(=O)(=O)N(CC(O)C(Cc2ccccc2)NC(=O)OC2COC3OCCC23)CC(C)(C)CCNC(=O)N2CCOCC2)cc1 [Compound 236, (3R,3aS,6aR)hexahydrofuro[2,3-b]furan-3-yl N-((1S,2R)-1-benzyl-3-2,2-dimethyl-4-[(morpholinocarbonyl)amino]butyl[(4-methoxyphenyl)sulfonyl]amino-2-hydroxypropyl)carbamate and (3S,3aR,6aS)hexahydrofuro[2,3-b]furan-3-yl N-((1S,2R)-1-benzyl-3-2,2-dimethyl-4-[(morpholinocarbonyl)amino]butyl[(4-methoxyphenyl)sulfonyl]amino-2-hydroxypropyl)carbamate] | < 0.001 | ≤ 0.1 |  | 
COc1ccc(S(=O)(=O)N(CC(C)CCC(C)=O)CC(O)[C@H](Cc2ccccc2)NC(=O)OC2CCOC2)cc1 (stereo partly drawn) [Compound 207, (3S)-Tetrahydro-3-furanyl N-(1S, 2R)-1-benzyl-2-hydroxy-3-[[(4-methoxyphenyl)sulfonyl](2-methyl-5-oxohexyl)amino]propylcarbamate] | < 0.001 | ≤ 0.1 |  | 
tert-Butyl N-(1S,2R)-1-benzyl-3-(4-cyanobutyl)[(4-methoxyphenyl)sulfonyl]amino-2-hydroxypropyl)carbamate [Compound 4] | 0.001 to 0.01 |  |  | 0.1 to 0.5
CC(=O)Nc1cccc(S(=O)(=O)N(C[C@@H](O)[C@H](Cc2ccccc2)NC(=O)O[C@H]2CO[C@H]3OCC[C@H]32)CC(C)(C)CCC#N)c1 [Compound 31, {(1S,2R)-3-[(3-Acetylamino-benzenesulfonyl)-(4-cyano-2,2-dimethyl-butyl)-amino]-1-benzyl-2-hydroxy-propyl}-carbamic acid (3R,3aS,6aR)hexahydro-furo[2,3-b]furan-3-yl ester] | < 0.001 | ≤ 0.1 |  | 
CNc1cccc(S(=O)(=O)N(CC(O)C(Cc2ccccc2)NC(=O)OC2COC3OCCC23)CC(C)(C)CCCC#N)c1 (centres unmarked) [Compound 38] | < 0.001 | ≤ 0.1 |  | 
CO/N=C(\C)CCC(C)(C)CN(CC(O)[C@H](Cc1ccccc1)NC(=O)OC1COC2OCCC12)S(=O)(=O)c1ccc2c(c1)OCO2 (stereo partly drawn) [Compound 261, (3R,3aS,6aR)-Hexahydrofuro[2,3-b]furan-3-yl-N-((1S,2R)-1-benzyl-3-(2,2-dimethyl-5-methoxyiminohexyl)[(3,4-methylenedioxyphenyl)sulfonyl]amino-2-hydroxypropyl)carbamate] | < 0.001 | ≤ 0.1 |  | 
